The record followed here is patent US20230338609A1, “MEDICAL DEVICES AND MATERIALS COMPRISING BIODEGRADABLE POLYESTERS” (AMICOAT AS, priority 2020, published 2023).

In data set [1] the test system is Staphylococcus aureus, strain ATCC 25923. The conditions noted are these: for MIC S. aureus: Staphylococcus aureus ATCC 25923.
In data set [2] the test system is Methicillin resistant Staphylococcus aureus (MRSA) strain ATCC 33591. Conditions: for MIC MRSA: MRSA ATCC 33591.
The test system of data set [3] is Methicillin resistant Staphylococcus epidermidis (MRSE) strain ATCC 27626. The conditions noted are these: for MIC MRSE: MRSE ATCC 27626.
In another data set the test system is C. albicans. Conditions: Table 5.
The test system of a further data set is S. pyogenes. Conditions: Table 5.
The subject of data set [4] is Salmonella sp - antibiotic-susceptible clinical isolate. Briefly: MIC microbroth dilution (CLSI). Format: cell-based. From the text:
(§1) Cation-adjusted Mueller-Hinton broth (Oxoid Ltd., Basingstoke, UK and Trek Diagnostic Systems Ltd., East Grinstead, UK) (supplemented with 5% laked horse blood for Streptococcus spp., Corynebacterium jeikeium and Listeria monocytogenes) was used for aerobic bacteria, with an initial inoculum of approximately 10^5 colony-forming units (CFU)/mL.

Data set [5] deals with Salmonella sp - multi-drug resistant clinical isolate. Briefly: MIC microbroth dilution (CLSI). Format: cell-based.
From the text: as §1
For orientation: Dilution methods test growth across graded concentrations, often in twofold steps.

For data set [6], the system named is Shigella sp - antibiotic-susceptible clinical isolate. Briefly: MIC microbroth dilution (CLSI). Format: cell-based.
From the text: as §1

In data set [7] the test system is Moraxella catarrhalis - reduced fluoroquinolone susceptibility clinical isolate. Format: cell-based. Conditions: M. catarrhalis reduced fluoroquinolone susceptibility.
From the text: as §1

The test system of data set [8] is Moraxella catarrhalis - β -lactamase positive clinical isolate. Format: cell-based. Conditions: M. catarrhalis β-lactamase positive.
From the text: as §1

Data set [9] relates to Streptococcus pyogenes - Macrolide (M-type) resistance clinical isolate. Format: cell-based. Conditions: S. pyogenes Macrolide (M-type) resistance.
From the text: as §1

Data set [10] has as its system Clostridium difficile - antibiotic-susceptible clinical isolate. Description: MIC microbroth dilution (CLSI). The conditions noted are these: C. difficile. Details: unit not given beside the values. Format: cell-based. Here is the method: Supplemented Brucella broth (SBB) was used for the anaerobic strains with an inoculum of approximately 10^6 CFU/mL. SBB is a broth consisting of 1% peptone, 0.5% ‘Lab-lemco’, 1% glucose and 0.5% sodium chloride supplemented with 5 […] vitamin K (both obtained from Sigma Aldrich Ltd.)

For data set [11], the system named is Candida parapsilosis ATCC 22019. Description: MIC microbroth dilution (CLSI), extra control strain. Format: cell-based. The conditions noted are these: C. parapsilosis ATCC 22019; RPMI 1640. Here is the method: Yeast and filamentous fungal MIC were performed in MOPS buffered RPMI 1640 medium (MOPS buffer obtained from Sigma Aldrich Ltd., RPMI 1640 obtained from Invitrogen Ltd, Paisley, Scotland). The yeast inocula were in the range 7.5×10^2-4×10^3 CFU/mL and the filamentous fungi approximately 8×10^3-1×10^5 CFU/mL

In data set [12] the test system is Bacteroides fragilis - ATCC 25285. Described as above. Format: cell-based. Details: unit not given here. The conditions noted are these: B. fragilis ATCC 25285; SBB.
Data set [13] relates to Eggerthella lenta - ATCC 43055. The description is as above. Format: cell-based. Details: unit not given here. The conditions noted are these: SBB.
In data set [14] the test system is Haemophilus influenzae - ATCC 47247. Described as above. Details: unit not given beside the values. The conditions noted are these: H. influenzae ATCC 47247; HTM.
The next data set relates to E. coli. The conditions noted are these: Table 5.
In another data set the test system is P. aeruginosa. The conditions noted are these: Table 5.
Data set [15] relates to Staphylococcus aureus FDA486. Briefly: Murine skin infection model, topical treatment. Format: in vivo. Conditions: mice; cream or gel containing 2% (w/w); three treatments at three hourly intervals; biopsy three hours after last. As for the experimental part: (§2) The skin of mice was infected with Staphylococcus aureus or Streptococcus pyogenes and subsequently given a total of three treatments at three hourly intervals. Three hours after the last treatment, skin biopsies were collected and the number of colony forming units (CFUs) present in the skin sample was determined. Results are shown in FIGS. 1 and 2, expressed as the number of colony forming units per mouse.
(§3) The skin of mice was infected with Staphylococcus aureus or Streptococcus pyogenes and subsequently given a total of three treatments at three hourly intervals. Three hours after the last treatment, skin biopsies were collected and the number of colony forming units (CFUs) present in the skin sample was determined. Results are shown in FIGS. 3, 4 and 5 expressed as the number of colony forming units per mouse.

Data set [16] has as its system Streptococcus pyogenes CS301. Description: Murine skin infection model, topical treatment. Format: in vivo. Conditions: mice. Here is the method:
as §2, §3

The nature of data set [17]: Solubility in organic solvents. Conditions: THF and chloroform. Format: physicochemical. Here is the method:
Alternatively, both the compound of Formula (I) and the polymer may be dissolved in a single solvent, either prior to mixing, at the time or mixing or after mixing. Suitable solvents for this approach include THF and chloroform. It may be necessary to combine the compound of Formula (I) with the solvent, e.g. THF, for a long time, e.g. at least 4 hours, preferably at least 12 hours, maybe 1 or more days, possibly up to 7 or 14 days.
The Resomer RG502 bioresorbable polymer material and AMC-109 were separately dissolved in THF in such a manner that amount of AMC-109 compared to the bioresorbable polymer in the final painting solution was 5%. The dissolution of AMC-109 in THF takes several hours.
The Resomer L2065 bioresorbable polymer material and AMC-109 were separately dissolved in dichloromethane and chloroform, respectively. The ratio between AMC-109 and L2065 was the same as above.

Values after ≈ are worked out from the molar mass of the structure shown. Like-named read-outs stand apart in the source and are kept apart here. Residues, ends and D or L forms follow the SMILES beside them. *: point of attachment. NHPhenethyl = c1ccc(CCN*)cc1 A value given as a limit tells only on which side of the number the result lay.

Take `CC(C)CNC(=O)[C@H](CCCNC(=N)N)NC(=O)[C@H](Cc1c(C(C)(C)C)[nH]c2c(C(C)(C)C)cc(C(C)(C)C)cc12)NC(=O)[C@@H](N)CCCNC(=N)N` [Compound 12]: the “S. aureus (MIC)” value in [1] (ATCC 25923) is reported as below 2 mg/L. In addition, the “MRSA (MIC)” value in [2] (ATCC 33591) came out at 3 mg/L. The “MRSE (MIC)” value in data set [3] (ATCC 27626) is 2 mg/L. In addition, the “C. albicans (MIC)” value with C. albicans is given as 10 mg/L. For the same molecule, the “S. pyogenes (MIC)” value with S. pyogenes was 2 mg/L.
Consider `CC(C)(C)c1cc(C(C)(C)C)c2[nH]c(C(C)(C)C)c(C[C@H](NC(=O)[C@@H](N)CCCNC(=N)N)C(=O)N[C@@H](CCCNC(=N)N)C(=O)NC3CCCCC3)c2c1` [Compound 13], for which the “S. aureus (MIC)” value in data set [1] (ATCC 25923) is below 2 mg/L. Moreover, in data set [2] (ATCC 33591), the “MRSA (MIC)” value was 2 mg/L. For the same molecule, in data set [3] (ATCC 27626), the “MRSE (MIC)” value turned out to be 2 mg/L. Also, the “C. albicans (MIC)” value in the data set with C. albicans is 10 mg/L. Besides, in the data set on S. pyogenes, the “S. pyogenes (MIC)” value is listed as below 2 mg/L.
Take `N=C(N)NCCCC(N)C(=O)NC(Cc1ccc(-c2ccc3ccccc3c2)cc1)C(=O)NC(CCCNC(=N)N)C(=O)NCCc1ccccc1` (stereo not shown) [Compound 1]: the MIC in data set [4] is reported as 16; in data set [5], 16; in data set [6] it was 32; in data set [7], 8; in data set [8], 4; in [9] it was 32. In [10], this molecule showed an MIC of 32. Also, the “MIC (control strain)” value stood at 4 in [11], 64 in data set [12], 16 in data set [13] and 32 in data set [14]. The “MIC S. aureus” value in data set [1] was found to be 4 µM (≈ 2.83 µg/mL). In addition, the “MIC MRSA” value in data set [2] was below 3 µM. For the same molecule, the “MIC MRSE” value in [3] was below 3 µM.
Turning to `CCCCCCCCCCCCCCCCNC(=O)[C@H](CCCNC(=N)N)NC(=O)[C@H](Cc1c(C(C)(C)C)[nH]c2c(C(C)(C)C)cc(C(C)(C)C)cc12)NC(=O)[C@@H](N)CCCNC(=N)N` [Compound 11], the “S. aureus (MIC)” value in data set [1] (Table 5, strain ATCC 25923) amounted to 5 mg/L. The “MRSA (MIC)” value in [2] (Table 5, strain ATCC 33591) worked out at 4 mg/L. Besides, the “MRSE (MIC)” value in data set [3] (Table 5, strain ATCC 27626) is on record as 4 mg/L. The “C. albicans (MIC)” value with C. albicans is above 100 mg/L. Further, the “S. pyogenes (MIC)” value with S. pyogenes is reported as 6 mg/L. In addition, the “E. coli (MIC)” value in the data set with E. coli is given as above 100 mg/L. Further, in the data set on P. aeruginosa, the “P. aeruginosa (MIC)” value is given as above 100 mg/L.
For `CCCCNC(=O)[C@H](CCCNC(=N)N)NC(=O)[C@H](Cc1c(C(C)(C)C)[nH]c2c(C(C)(C)C)cc(C(C)(C)C)cc12)NC(=O)[C@@H](N)CCCNC(=N)N` [Compound 9], in [1] (ATCC 25923), the “S. aureus (MIC)” value came to 2 mg/L. In addition, in [2] (ATCC 33591), the “MRSA (MIC)” value was 3 mg/L. The “MRSE (MIC)” value in data set [3] (ATCC 27626) was below 2 mg/L. Moreover, in the data set on C. albicans, the “C. albicans (MIC)” value is 10 mg/L. For the same molecule, the “S. pyogenes (MIC)” value with S. pyogenes was determined as 2 mg/L.
For the molecule `N=C(N)NCCC[C@H](NC(=O)[C@H](Cc1c[nH]c2ccccc12)NC(=O)[C@@H](N)CCCNC(=N)N)C(=O)NCCc1ccccc1` [Compound 6, reference compound] (H-Arg-Trp-Arg-NHPhenethyl; N-terminus assumed), in [1], the “MIC S. aureus” value was determined as 145 µM (≈ 89.9 µg/mL). Also, in data set [2], the “MIC MRSA” value was 97 µM (≈ 60.1 µg/mL). Further, in data set [3], the “MIC MRSE” value came out at 81 µM (≈ 50.2 µg/mL).
With `CCCNC(=O)[C@H](CCCNC(=N)N)NC(=O)[C@H](Cc1c(C(C)(C)C)[nH]c2c(C(C)(C)C)cc(C(C)(C)C)cc12)NC(=O)[C@@H](N)CCCNC(=N)N` [Compound 10], in data set [1] (ATCC 25923), the “S. aureus (MIC)” value amounted to 2 mg/L. Besides, the “MRSA (MIC)” value in [2] (ATCC 33591) is 3 mg/L. Besides, the “MRSE (MIC)” value in [3] (ATCC 27626) is below 2 mg/L. For the same molecule, the “C. albicans (MIC)” value with C. albicans came out at 10 mg/L. Besides, in the data set on S. pyogenes, the “S. pyogenes (MIC)” value amounted to 2 mg/L.
As for `CC(C)(C)c1cc(C(C)(C)C)c2[nH]c(C(C)(C)C)c(C[C@H](NC(=O)[C@@H](N)CCCNC(=N)N)C(=O)N[C@@H](CCCNC(=N)N)C(=O)NC3CCCC3)c2c1` [Compound 14], the “S. aureus (MIC)” value in [1] (ATCC 25923) is below 2 mg/L. Also, the “MRSA (MIC)” value in data set [2] (ATCC 33591) is reported as above 15 mg/L. In addition, the “MRSE (MIC)” value in data set [3] (ATCC 27626) is below 2 mg/L. For the same molecule, the “C. albicans (MIC)” value in the data set with C. albicans was determined as 10 mg/L. The “S. pyogenes (MIC)” value with S. pyogenes is on record as 2 mg/L.
Consider `CC(C)(C)c1cc(C(C)(C)C)c2[nH]c(C(C)(C)C)c(CC(NC(=O)C(N)CCCNC(=N)N)C(=O)NC(CCCNC(=N)N)C(=O)NCCc3ccccc3)c2c1` (stereo not drawn) [Compound 2, Arg-Tbt-Arg-NHCH2CH2Ph], for which the MIC is reported as 8 in data set [4]; 8 in data set [5]; 8 in data set [6]; 8 in [7]; 4 in data set [8]; 16 in data set [9]. For the same molecule, the MIC in data set [10] turned out to be 16. Further, the “MIC (control strain)” value in [11] is on record as 8; in data set [12] it was 64; in data set [13], 32; in [14], 4. In addition, the “number of CFUs in skin biopsy vs placebo” value in [15] is reported as “the number of CFUs was reduced”. Besides, the “number of CFUs in skin biopsy vs placebo gel and bactroban” value in data set [16] (1% or 2% gel, three treatments at three hourly intervals) is reported as “more effective at reducing the number of CFUs than the placebo gel or the bactroban”. Moreover, in data set [16] (2% gel vs 1% gel), the “number of CFUs in skin biopsy, 2% gel compared with 1% gel” value is “more effective than the gel containing only 1% of compound 2”. Further, in data set [17], the solubility result is “soluble in THF and chloroform”.
